Experiments:
[1] = tested on: methicillin-susceptible S. aureus (SH1000); experiment: microbe, parasite or virus in culture; assay type: cell-based
[2] = tested on: community-acquired methicillin-resistant S. aureus (CA-MRSA; USA 300-0114); experiment: microbe, parasite or virus in culture; assay type: cell-based
[3] = tested on: hospital-acquired methicillin-resistant S. aureus (HA-MRSA; ATCC 33591); experiment: microbe, parasite or virus in culture; assay type: cell-based
[4] = tested on: Enterococcus faecalis (OG1RF); experiment: microbe, parasite or virus in culture; assay type: cell-based
[5] = tested on: Escherichia coli (MC4100); experiment: microbe, parasite or virus in culture; assay type: cell-based
[6] = tested on: Pseudomonas aeruginosa (PAO1); experiment: microbe, parasite or virus in culture; assay type: cell-based
[7] = tested on: red blood cell (RBC)

Compound	Minimum Inhibitory Concentration MSSA [1] [µM]	Minimum Inhibitory Concentration CA-MRSA [2] [µM]	Minimum Inhibitory Concentration HA-MRSA [3] [µM]	Minimum Inhibitory Concentration E. faecalis [4] [µM]	Minimum Inhibitory Concentration E. coli [5] [µM]	Minimum Inhibitory Concentration Pa [6] [µM]	Lys20 [7] [µM]	fold increase in activity compared to its 12-carbon analog [5] [fold]
CCCCCCCC[P+](CC[P+](CCCCCCCC)(c1ccccc1)c1ccccc1)(CC[P+](CCCCCCCC)(c1ccccc1)c1ccccc1)c1ccccc1 [P2P2P-8,8,8, ((octyl(phenyl)phosphoniodiyl)bis(ethane-2,1-diyl))bis(octyldiphenylphosphonium)]	2	1	2	250	250	>250	16	
CCCCCCCCCCC[P+](CC[P+](CCCCCCCCCCC)(c1ccccc1)c1ccccc1)(CC[P+](CCCCCCCCCCC)(c1ccccc1)c1ccccc1)CC[P+](CCCCCCCCCCC)(c1ccccc1)c1ccccc1 [4P-11,11,11,11, ((undecylphosphoniotriyl)tris(ethane-2,1-diyl))tris(diphenyl(undecyl)phosphonium)]	16	32	125	125	125	>250	4	
CCCCCCCCCC[P+](CC[P+](CCCCCCCCCC)(c1ccccc1)c1ccccc1)(CC[P+](CCCCCCCCCC)(c1ccccc1)c1ccccc1)CC[P+](CCCCCCCCCC)(c1ccccc1)c1ccccc1 [4P-10,10,10,10, ((decylphosphoniotriyl)tris(ethane-2,1-diyl))tris(decyldiphenylphosphonium)]	16	32	32	250	250	>250	8	
CCCCCCCCCCC[P+](CC[P+](CCCCCCCCCCC)(c1ccccc1)c1ccccc1)(CC[P+](CCCCCCCCCCC)(c1ccccc1)c1ccccc1)c1ccccc1 [P2P2P-11,11,11, ((phenyl(undecyl)phosphoniodiyl)bis(ethane-2,1-diyl))bis(diphenyl(undecyl)phosphonium)]	2	4	4	63	63	>250	1	
CCCCCCCCCCCCCCCC[n+]1ccccc1 [CPC, cetylpyridinium chloride, reference compound]							4	
CCCCCCCCCCCCC[P+](c1ccccc1)(c1ccccc1)c1ccccc1 [TPP-13, triphenyl(tridecyl)phosphonium]	1	1	2	16	4	32	4	~63
CCCCCCCCCC[P+](CC[P+](CCCCCCCCCC)(c1ccccc1)c1ccccc1)(CC[P+](CCCCCCCCCC)(c1ccccc1)c1ccccc1)c1ccccc1 [P2P2P-10,10,10, ((decyl(phenyl)phosphoniodiyl)bis(ethane-2,1-diyl))bis(decyldiphenylphosphonium)]	2	2	8	250	32	>250	2	
CCCCCCCCCCCC[P+](CC[P+](CCCCCCCCCCCC)(c1ccccc1)c1ccccc1)(CC[P+](CCCCCCCCCCCC)(c1ccccc1)c1ccccc1)c1ccccc1 [P2P2P-12,12,12, ((dodecyl(phenyl)phosphoniodiyl)bis(ethane-2,1-diyl))bis(dodecyldiphenylphosphonium)]	2	4	8	125	125	>250	1	
CCCCCCCC[P+](c1ccccc1)(c1ccccc1)c1ccccc1 [TPP-8, octyltriphenylphosphonium]	4	4	125	>250	>250	>250	63	
CCCCCCCCCCCCCC[P+](c1ccccc1)(c1ccccc1)c1ccccc1 [TPP-14, triphenyl(tetradecyl)phosphonium]	2	2	2	8	16	16	4	
CCCCCCCCCCCCC[P+](CC[P+](CCCCCCCCCCCCC)(c1ccccc1)c1ccccc1)(CC[P+](CCCCCCCCCCCCC)(c1ccccc1)c1ccccc1)c1ccccc1 [P2P2P-13,13,13, ((phenyl(tridecyl)phosphoniodiyl)bis(ethane-2,1-diyl))bis(diphenyl(tridecyl)phosphonium)]	2	4	16	125	125	>250	2	
CCCCCCCCCCC[P+](c1ccccc1)(c1ccccc1)c1ccccc1 [TPP-11, triphenyl(undecyl)phosphonium]	1	1	4	125	125	250	16	
CCCCCCCCCCCC[P+](CC[P+](CCCCCCCCCCCC)(c1ccccc1)c1ccccc1)(CC[P+](CCCCCCCCCCCC)(c1ccccc1)c1ccccc1)CC[P+](CCCCCCCCCCCC)(c1ccccc1)c1ccccc1 [4P-12,12,12,12, ((dodecylphosphoniotriyl)tris(ethane-2,1-diyl))tris(dodecyldiphenylphosphonium)]	16	16	63	250	250	>250	4	
CCCCCCCCCC[P+](c1ccccc1)(c1ccccc1)c1ccccc1 [TPP-10, decyltriphenylphosphonium]	1	2	8	250	250	250	16	

Reference: patent US20250034184A1, “QUATERNARY PHOSPHONIUM COMPOUNDS AND USES THEREOF” (Emory University, priority 2021, published 2025)
